# Measurements from US20250179059A1 (The Regents of the University of California, priority 2021, published 2025).
# Key:
# [1] = target: T1, human BRD4 bromodomain II (Homo sapiens, UniProt O60885); assay: Bromodomain binding assay (AlphaScreen), BRD4 BDII; conditions: AlphaScreen assay, Table C2; read-out: BRD4 BDII IC50
# T1 construct: human BRD4 bromodomain II [based on Genbank NM_058243, residues 349-460]; host or cells: E. coli
# Method in brief: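 AlphaScreen competition with biotinylated H4 peptide (aa 1-21, K5/K8/K12/K16Ac), using nickel-chelate acceptor and streptavidin donor beads. Targets were His6-BRD4 BDI (44-170) or BDII (349-460), with a 30 min compound preincubation over a 10-point 3-fold series. IC50 was fitted from percentage peptide binding.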
# [2] = system: human SKM-1 acute myeloid leukemia cells; assay: SKM-1 antiproliferation cell-based assay (ATPlite); conditions: Homo sapiens, SKM-1, 96 h, SKM-1 antiproliferation assay, 4 days, Table C2
# Method in brief: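 Log-phase cells in RPMI 1640/15% FBS were seeded at 34722 cells/mL and exposed for 4 days to nine-concentration DMSO serial dilutions in triplicate. Viability was read as ATP luminescence (ATPlite 1step), and IC50 values came from variable-slope non-linear regression.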
IC50 [1] [nM],GI50 [2] [nM],Structure (SMILES)
1 to 10,300 to 3000,"O=C1CCCN1c1ccc(-c2cc(Cl)cc(-c3ccnc(N4CCNCC4)c3)c2O)cc1F [Example 269, 1-(5′-chloro-3-fluoro-2′-hydroxy-3′-(2-(piperazin-1-yl)pyridin-4-yl)-[1,1′-biphenyl]-4-yl)pyrrolidin-2-one]"
1 to 10,300 to 3000,"CC(=O)Nc1ccc(-c2cccc(-c3ccnc(N4CC5(CNC5)C4)c3)c2O)cc1F [Example 270, N-(3′-(2-(2,6-diazaspiro[3.3]heptan-2-yl)pyridin-4-yl)-3-fluoro-2′-hydroxy-[1,1′-biphenyl]-4-yl)acetamide]"
10 to 100,300 to 3000,"O=C1CCCN1c1ccc(-c2cccc(-c3ccnc(N4CC5(CNC5)C4)c3)c2O)cc1Cl [Example 271, 1-(3′-(2-(2,6-diazaspiro[3.3]heptan-2-yl)pyridin-4-yl)-3-chloro-2′-hydroxy-[1,1′-biphenyl]-4-yl)pyrrolidin-2-one]"
10 to 100,300 to 3000,"CC(=O)Nc1ccc(-c2cccc(-c3ccnc(N4CCC(O)CC4)c3)c2O)cc1F [Example 272, N-(3-fluoro-2′-hydroxy-3′-(2-(4-hydroxypiperidin-1-yl)pyridin-4-yl)-[1,1′-biphenyl]-4-yl)acetamide]"
10 to 100,300 to 3000,"CC(=O)Nc1ccc(-c2cccc(-c3cc(C(N)=O)nc(N4CCNCC4)c3)c2O)cc1F [Example 273, 4-(4′-acetamido-3′-fluoro-2-hydroxy-[1,1′-biphenyl]-3-yl)-6-(piperazin-1-yl)picolinamide]"
1 to 10,30 to 300,"O=C1CCCN1c1ccc(-c2cc(Cl)cc(-c3ccnc(N4CCNCC4)c3)c2O)cc1Cl [Example 274, 1-(3,5′-dichloro-2′-hydroxy-3′-(2-(piperazin-1-yl)pyridin-4-yl)-[1,1′-biphenyl]-4-yl)pyrrolidin-2-one]"
1 to 10,30 to 300,"CC(=O)Nc1ccc(-c2cc(C)cc(-c3ccnc(N4CCNCC4)c3)c2O)cc1F [Example 275, N-(3-fluoro-2′-hydroxy-5′-methyl-3′-(2-(piperazin-1-yl)pyridin-4-yl)-[1,1′-biphenyl]-4-yl)acetamide]"
10 to 100,300 to 3000,"O=C1NCCCN1c1ccc(-c2cccc(-c3ccnc(N4CCNCC4)c3)c2O)cc1Cl [Example 276, 1-(3-chloro-2′-hydroxy-3′-(2-(piperazin-l-yl)pyridin-4-yl)-[1,1′-biphenyl]-4-yl)tetrahydropyrimidin-2(1H)-one]"
> 100,300 to 3000,"O=C1NCCCN1c1ccc(-c2cccc(-c3ccnc(N4CCNCC4)c3)c2O)cc1F [Example 277, 1-(3-fluoro-2′-hydroxy-3′-(2-(piperazin-1-yl)pyridin-4-yl)-[1,1′-biphenyl]-4-yl)tetrahydropyrimidin-2(1H)-one]"
10 to 100,300 to 3000,"O=C1NCCCN1c1ccc(-c2cc(F)cc(-c3ccnc(N4CCNCC4)c3)c2O)cc1F [Example 278, 1-(3,5′-difluoro-2′-hydroxy-3′-(2-(piperazin-1-yl)pyridin-4-yl)-[1,1′-biphenyl]-4-yl)tetrahydropyrimidin-2(1H)-one]"
1 to 10,300 to 3000,"CC(=O)Nc1ccc(-c2cccc(-c3ccnc(N4CC(C)NC(C)C4)c3)c2O)cc1F (stereo not drawn) [Example 279, N-(3′-(2-(3,5-dimethylpiperazin-1-yl)pyridin-4-yl)-3-fluoro-2′-hydroxy-[1,1′-biphenyl]-4-yl)acetamide]"
10 to 100,300 to 3000,"O=C1CCCCN1c1ccc(-c2cc(F)cc(-c3ccnc(N4CCNCC4)c3)c2O)cc1F [Example 280, 1-(3,5′-difluoro-2′-hydroxy-3′-(2-(piperazin-1-yl)pyridin-4-yl)-[1,1′-biphenyl]-4-yl)piperidin-2-one]"
10 to 100,300 to 3000,"O=C1CCCCN1c1ccc(-c2cc(F)cc(-c3ccnc(N4CCNCC4)c3)c2O)cc1Cl [Example 281, 1-(3-chloro-5′-fluoro-2′-hydroxy-3′-(2-(piperazin-1-yl)pyridin-4-yl)-[1,1′-biphenyl]-4-yl)piperidin-2-one]"
10 to 100,300 to 3000,"O=C1CCCCN1c1ccc(-c2cccc(-c3ccnc(N4CCNCC4)c3)c2O)cc1Cl [Example 282, 1-(3-chloro-2′-hydroxy-3′-(2-(piperazin-1-yl)pyridin-4-yl)-[1,1′-biphenyl]-4-yl)piperidin-2-one]"
10 to 100,300 to 3000,"CC(=O)Nc1ccc(-c2cccc(-c3ccnc(N4CC5(CNC5)C4)c3)c2O)cc1Cl [Example 283, N-(3′-(2-(2,6-diazaspiro[3.3]heptan-2-yl)pyridin-4-yl)-3-chloro-2′-hydroxy-[1,1′-biphenyl]-4-yl)acetamide]"
10 to 100,300 to 3000,"O=C1CCCN1c1ccc(-c2cccc(-c3ccnc(N4CC5(CNC5)C4)c3)c2O)cc1F [Example 284, 1-(3′-(2-(2,6-diazaspiro[3.3]heptan-2-yl)pyridin-4-yl)-3-fluoro-2′-hydroxy-[1,1′-biphenyl]-4-yl)pyrrolidin-2-one]"
10 to 100,300 to 3000,"O=C1CCCN1c1ccc(-c2cc(F)cc(-c3ccnc(N4CC5(CNC5)C4)c3)c2O)cc1F [Example 285, 1-(3′-(2-(2,6-diazaspiro[3.3]heptan-2-yl)pyridin-4-yl)-3,5′-difluoro-2′-hydroxy-[1,1′-biphenyl]-4-yl)pyrrolidin-2-one]"
10 to 100,300 to 3000,"CC(=O)Nc1ccc(-c2cccc(-c3cc(N4CCNCC4)nc4[nH]ccc34)c2O)cc1F [Example 286, N-(3-fluoro-2′-hydroxy-3′-(6-(piperazin-1-yl)-1H-pyrrolo[2,3-b]pyridin-4-yl)-[1,1′-biphenyl]-4-yl)acetamide]"
> 100,300 to 3000,"O=C1NCCCN1c1ccc(-c2cc(F)cc(-c3ccnc(N4CCNCC4)c3)c2O)cc1Cl [Example 287, 1-(3-chloro-5′-fluoro-2′-hydroxy-3′-(2-(piperazin-1-yl)pyridin-4-yl)-[1,1′-biphenyl]-4-yl)tetrahydropyrimidin-2(1H)-one]"
> 100,≥ 3000,"CN1CCCN(c2ccc(-c3cccc(-c4ccnc(N5CCNCC5)c4)c3O)cc2F)C1=O [Example 288, 1-(3-fluoro-2′-hydroxy-3′-(2-(piperazin-1-yl)pyridin-4-yl)-[1,1′-biphenyl]-4-yl)-3-methyltetrahydropyrimidin-2(1H)-one]"
1 to 10,30 to 300,"C[C@@H]1CN(c2cc(-c3cccc(-c4ccc(N5CCN(C)C5=O)c(F)c4)c3O)ccn2)CCN1 [Example 289, (R)-1-(3-fluoro-2′-hydroxy-3′-(2-(3-methylpiperazin-1-yl)pyridin-4-yl)-[1,1′-biphenyl]-4-yl)-3-methylimidazolidin-2-one]"
> 100,≥ 3000,"COC(=O)c1cc(-c2ccnc(N3CCNCC3)c2)c(O)c(-c2ccc(NC(C)=O)c(F)c2)c1 [Example 290, Methyl 4′-acetamido-3′-fluoro-6-hydroxy-5-(2-(piperazin-1-yl)pyridin-4-yl)-[1,1′-biphenyl]-3-carboxylate]"
10 to 100,300 to 3000,"CC(=O)Nc1ccc(-c2cccc(-c3cc(F)nc(N4CCNCC4)c3)c2O)cc1F [Example 291, N-(3-fluoro-3′-(2-fluoro-6-(piperazin-1-yl)pyridin-4-yl)-2′-hydroxy-[1,1′-biphenyl]-4-yl)acetamide]"
1 to 10,30 to 300,"CN1CCN(c2ccc(-c3cccc(-c4cncc(N5CCNCC5)c4)c3O)cc2F)C1=O [Example 292, 1-(3-fluoro-2′-hydroxy-3′-(5-(piperazin-1-yl)pyridin-3-yl)-[1,1′-biphenyl]-4-yl)-3-methylimidazolidin-2-one]"
1 to 10,30 to 300,"CN1CCN(c2ccc(-c3cccc(-c4cncc(N5CCNCC5)c4)c3O)cc2Cl)C1=O [Example 293, 1-(3-chloro-2′-hydroxy-3′-(5-(piperazin-l-yl)pyridin-3-yl)-[1,1′-biphenyl]-4-yl)-3-methylimidazolidin-2-one]"
1 to 10,30 to 300,"C[C@@H]1CN(c2cc(-c3cccc(-c4ccc(N5CCN(C)C5=O)c(Cl)c4)c3O)ccn2)CCN1 [Example 294, (R)-1-(3-chloro-2′-hydroxy-3′-(2-(3-methylpiperazin-1-yl)pyridin-4-yl)-[1,1′-biphenyl]-4-yl)-3-methylimidazolidin-2-one]"
1 to 10,30 to 300,"CN1CCN(c2ccc(-c3cc(Cl)cc(-c4ccnc(N5CCNCC5)c4)c3O)cc2Cl)C1=O [Example 295, 1-(3,5′-dichloro-2′-hydroxy-3′-(2-(piperazin-1-yl)pyridin-4-yl)-[1,1′-biphenyl]-4-yl)-3-methylimidazolidin-2-one]"
10 to 100,300 to 3000,"CC(=O)Nc1ccc(-c2cccc(-c3ccnc(C#CCN)c3)c2O)cc1F [Example 296, N-(3′-(2-(3-aminoprop-1-yn-1-yl)pyridin-4-yl)-3-fluoro-2′-hydroxy-[1,1′-biphenyl]-4-yl)acetamide]"
10 to 100,30 to 300,"CC(=O)Nc1ccc(-c2cc(F)cc(-c3ccnc(N4CC5(CNC5)C4)c3)c2O)cc1Cl [Example 298, N-(3′-(2-(2,6-diazaspiro[3.3]heptan-2-yl)pyridin-4-yl)-3-chloro-5′-fluoro-2′-hydroxy-[1,1′-biphenyl]-4-yl)acetamide]"
10 to 100,≥ 3000,"CNC(=O)c1cc(-c2ccnc(N3CCNCC3)c2)c(O)c(-c2ccc(NC(C)=O)c(F)c2)c1 [Example 299, 4′-Acetamido-3′-fluoro-6-hydroxy-N-methyl-5-(2-(piperazin-1-yl)pyridin-4-yl)-[1,1′-biphenyl]-3-carboxamide]"
